In patent EP0136464A2, “Therapeutic compositions for oral use containing stable S-Adenosy1-L-Methionine salts” (BIORESEARCH S.p.A., priority 1983, dated 1985):
Like-named read-outs stand apart in the source and are kept apart here.

Legend:
[1] = SAMe concentration in portal and aortic plasma after intestinal or oral (gastric probe) administration; format: in vivo, male Sprague-Dawley rats; details: rat, SAMe-tri-p. toluenesulphonate, reduced by control values; for concentration at 1 h: 60 min; for concentration at 1.5 h: 90 min; for concentration at 2 h: 120 min; for concentration at 3 h: 180 min; for concentration at 4 h: 240 min
Protocol: The values given relate to tests carried out with SAMe-tri-p. toluenesulphonate, but substantially identical results were obtained with other known SAMe salts.
The drug concentrations in the portal or aortic plasma were evaluated as the absorption parameters.
The experiment was carried out on 72 male Sprague-Dawley rats of weight 210-260 g, which had fasted since the previous evening.
The animals, anesthetised with ether, were operated on in order to insert a capsule into the proximal jejunum. The incision in the intestinal wall was closed by ligature, and the animals were sutured.
The treatment scheme was as follows: • Intestinal administration: A capsule containing a weighed SAMe quantity corresponding to a dose of 32 mg/kg of body weight was inserted into the intestine, and 5 ml of H20/kg were administered by means of a gastric probe. • Oral administration: An empty capsule was inserted into the intestine, and 32 mg of SAMe/kg in aqueous solution (5 ml/kg) were • administered by means of a gastric probe. Controls: An empty capsule was inserted into the intestine, and 5 ml of H20/kg of body weight were administered by means of a gastric probe.
After 10, 20, 40, 60, 90, 120, 180 and 240 minutes from administration, 3 animals were sacrificed at a time in order to withdraw portal and aortic blood.
The SAMe concentrations in the plasma were determined by the Baldessarini and Kopin method (J. Neuroch. 13: 769, 1966).
The values represent the mean + standard error of 3 observations, reduced by the values found for the controls.

[2] = test system: Reaction to heat, tail flick test in the rat; assay: Reaction to heat, tail flick test in the rat (analgesic activity); format: in vivo, male Sprague-Dawley rats
Protocol: (§1) In the experiments carried out on animals which received the SAMe orally, the drug was dissolved in physiological solution and administered by gastric probe in a volume of 0.5 ml/100 g of body weight. An equal volume of physiological solution was administered to the controls.
(§2) In the experiments in which SAMe was administered intraduodenally, the animals anesthetised with ether were subjected to laparotomy to allow the insertion into the duodenum of gelatin capsules (size 4) containing the product.
(§3) After inserting the capsule, the duodenum was sutured carefully so as not to traumatise the tissue and was then returned to its seat, the muscular and cutaneous layers then being re-composed and sutured.
(§4) The control animals received an empty gelatin capsule by the same procedure.
1) Reaction to heat, tail flick test in the rat.
The analgesic activity of SAMe was evaluated in male Sprague-Dawley rats of about 190 g weight by the method of D'Amour and Smith (J. Pharmacol. Exp. Theor. 71, 74 (1941)).
The SAMe was administered either orally or in gelatin capsules into the duodenum in doses of 50 and 100 mg/kg.
Morphine was used as the comparison drug and was administered under the cutis at a dose of 5 mg/kg.
The analgesic activity was determined 30, 60 and 120 minutes after administration of the drugs.
The results represent the mean + S.E. for the number of animals indicated in parentheses. The morphine was administered under the cutis to rats which received one empty capsule into the duodenum.

[3] = test system: Edema induced by carrageen in the rat; assay: Edema induced by carrageen in the rat (anti-inflammatory activity); format: in vivo, Male Sprague-Dawley rats
Protocol: as §1, §2, §3, §4
The antiphlogistic and analgesic activity of SAMe were evaluated by the following tests: • A. Anti-inflammatory activity • 1) Edema induced by carrageen in the rat.
Male Sprague-Dawley rats of about 170 g weight were used, having fasted since the evening preceding the experiment. Edema was induced by carrageen using the method described by Winter et al. (Proc. Soc. Exp. Biol. Med. 111, 544 (1962)).
The SAMe was administered orally one hour before the carrageen at doses of 25 and 50 mg/kg, and intraduodenally at doses of 25 and 50 mg/kg 80 minutes before the phlogogenic agent. […]

[4] = aortic plasma, po, 32 mg/kg aqueous solution by gastric probe, read-out: SAMe concentration in the plasma, Oral treatment, Aortic
[5] = aortic plasma, 32 mg/kg capsule into proximal jejunum, read-out: SAMe concentration in the plasma, Intestinal treatment, Aortic
[6] = portal plasma, po, 32 mg/kg aqueous solution by gastric probe, read-out: SAMe concentration in the plasma, Oral treatment, Portal
[7] = portal plasma, 32 mg/kg capsule into proximal jejunum, read-out: SAMe concentration in the plasma, Intestinal treatment, Portal

**Q.** For `C[S+](CC[C@H](N)C(=O)[O-])C[C@H]1O[C@@H](n2cnc3c(N)ncnc32)[C@H](O)[C@@H]1O` (stereo partly drawn) [SAMe, Sulpho-adenosyl-L-methionine], which concentration at 10 min [1, 4] is on record?
**A.** 1100 ng/mL

**Q.** And the concentration at 20 min [1, 4]?
**A.** 780 ng/mL

**Q.** What about the concentration at 40 min [1, 4] of the same compound?
**A.** 720 ng/mL

**Q.** What about the concentration at 1 h [1, 4] of the same compound?
**A.** 700 ng/mL

**Q.** What about the concentration at 1.5 h [1, 4] of the same compound?
**A.** 680 ng/mL

**Q.** What about the concentration at 2 h [1, 4] of the same compound?
**A.** 680 ng/mL

**Q.** What about the concentration at 3 h [1, 4] of the same compound?
**A.** 660 ng/mL

**Q.** What about the concentration at 4 h [1, 4] of the same compound?
**A.** 640 ng/mL

**Q.** What about the concentration at 10 min [1, 5] of the same compound?
**A.** 13100 ng/mL

**Q.** What about the concentration at 20 min [1, 5] of the same compound?
**A.** 8630 ng/mL

**Q.** What about the concentration at 40 min [1, 5] of the same compound?
**A.** 4390 ng/mL

**Q.** And the concentration at 1 h [1, 5]?
**A.** 1870 ng/mL

**Q.** What about the concentration at 1.5 h [1, 5] of the same compound?
**A.** 1280 ng/mL

**Q.** And the concentration at 2 h [1, 5]?
**A.** 880 ng/mL

**Q.** What about the concentration at 3 h [1, 5] of the same compound?
**A.** 690 ng/mL

**Q.** And the concentration at 4 h [1, 5]?
**A.** 530 ng/mL

**Q.** What about the concentration at 10 min [1, 6] of the same compound?
**A.** 2930 ng/mL

**Q.** And the concentration at 20 min [1, 6]?
**A.** 870 ng/mL

**Q.** What about the concentration at 40 min [1, 6] of the same compound?
**A.** 840 ng/mL

**Q.** And the concentration at 1 h [1, 6]?
**A.** 610 ng/mL

**Q.** What about the concentration at 1.5 h [1, 6] of the same compound?
**A.** 540 ng/mL

**Q.** What about the concentration at 2 h [1, 6] of the same compound?
**A.** 520 ng/mL

**Q.** And the concentration at 3 h [1, 6]?
**A.** 520 ng/mL

**Q.** What about the concentration at 4 h [1, 6] of the same compound?
**A.** 460 ng/mL

**Q.** What about the concentration at 10 min [1, 7] of the same compound?
**A.** 25500 ng/mL

**Q.** What about the concentration at 20 min [1, 7] of the same compound?
**A.** 9390 ng/mL

**Q.** And the concentration at 40 min [1, 7]?
**A.** 2990 ng/mL

**Q.** And the concentration at 1 h [1, 7]?
**A.** 2440 ng/mL

**Q.** And the concentration at 1.5 h [1, 7]?
**A.** 1540 ng/mL

**Q.** What about the concentration at 2 h [1, 7] of the same compound?
**A.** 770 ng/mL

**Q.** And the concentration at 3 h [1, 7]?
**A.** 770 ng/mL

**Q.** And the concentration at 4 h [1, 7]?
**A.** 640 ng/mL

**Q.** And the “Reaction time in minutes at various times after treatment” value (shortened to “Reaction time in minutes”) ([2]; administered into the duodenum, 50 mg/kg, 30 min)?
**A.** 8.5 min

**Q.** What about the “Reaction time in minutes” value ([2]; administered into the duodenum, 50 mg/kg, 60 min) of the same compound?
**A.** 8.2 min

**Q.** And the “Reaction time in minutes” value ([2]; administered into the duodenum, 50 mg/kg, 120 min)?
**A.** 8.3 min

**Q.** And the “Reaction time in minutes” value ([2]; administered into the duodenum, 50 mg/kg, T0)?
**A.** 4.8 min

**Q.** And the “Reaction time in minutes” value ([2]; administered into the duodenum, 100 mg/kg, 30 min)?
**A.** 10.2 min

**Q.** And the “Reaction time in minutes” value ([2]; administered into the duodenum, 100 mg/kg, 60 min)?
**A.** 9.6 min

**Q.** And the “Reaction time in minutes” value ([2]; administered into the duodenum, 100 mg/kg, 120 min)?
**A.** 8.5 min

**Q.** And the “Reaction time in minutes” value ([2]; administered into the duodenum, 100 mg/kg, T0)?
**A.** 5.0 min

**Q.** What about the “Reaction time in minutes” value ([2]; administered orally, 50 mg/kg, 30 min) of the same compound?
**A.** 5.04 min

**Q.** And the “Reaction time in minutes” value ([2]; administered orally, 50 mg/kg, 60 min)?
**A.** 4.09 min

**Q.** And the “Reaction time in minutes” value ([2]; administered orally, 50 mg/kg, 120 min)?
**A.** 4.20 min

**Q.** And the “Reaction time in minutes” value ([2]; administered orally, 50 mg/kg, T0)?
**A.** 4.60 min

**Q.** And the “Reaction time in minutes” value ([2]; administered orally, 100 mg/kg, 30 min)?
**A.** 4.46 min

**Q.** And the “Reaction time in minutes” value ([2]; administered orally, 100 mg/kg, 60 min)?
**A.** 4.73 min

**Q.** And the “Reaction time in minutes” value ([2]; administered orally, 100 mg/kg, 120 min)?
**A.** 4.25 min

**Q.** And the “Reaction time in minutes” value ([2]; administered orally, 100 mg/kg, T0)?
**A.** 4.41 min

**Q.** What about the “reaction times, difference between treated animals and the controls” value ([2]; intraduodenal administration, 100 mg/kg, 30 minutes after treatment) of the same compound?
**A.** highly significant difference (P<0.01)

**Q.** And the “reaction time towards heat with respect to the controls” value ([2]; oral administration, 50 and 100 mg/kg)?
**A.** not able to modify the reaction time towards heat

**Q.** What about the edema inhibition ([3]; intraduodenal administration, 50 mg/kg, 80 minutes before the phlogogenic agent) of the same compound?
**A.** statistically significant edema inhibition

**Q.** And the edema development ([3]; oral administration, 25 and 50 mg/kg, one hour before the carrageen, versus controls)?
**A.** not able to significantly modify the edema development

**Q.** For `CN1CC[C@]23c4c5ccc(O)c4O[C@H]2[C@@H](O)C=C[C@H]3[C@H]1C5` [Morphine, reference compound], which “analgesic activity with respect to the controls” value ([2]; in vivo, 5 mg/kg) is on record?
**A.** powerful analgesic activity (P<0.01)
